Measurements taken from PubChem BioAssay AID248 (DTP/NCI, 2004).
Where “and” joins values, the source holds several entries; their conditions need not be identical. Equal values may be shown once. Toxic doses and inconclusive results are not listed. Rule as the data show it: active = T/C of 150% or more; inactive = T/C below 125%.

Tested on: L1210 leukemia ip in BDF1 mice, survival T/C
Assay: NCI In Vivo Anticancer Drug Screen. Data for tumor model L1210 Leukemia (intraperitoneal) in B6D2F1 (BDF1) mice
Details: endpoint: mean survival time, higher = longer survival
In short: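 Transplantable tumor model; survival measured in treated vs vehicle control mice. Value = treated/control.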

[1] = dose: 100.0 mg/kg/injection, schedule: Q01DX001 (ip), vehicle: saline
[2] = dose: 200.0 mg/kg/injection, schedule: Q01DX001 (ip), vehicle: saline
[3] = dose: 400.0 mg/kg/injection, schedule: Q01DX001 (ip), vehicle: saline
[4] = dose: 100.0 mg/kg/injection, schedule: Q01DX001 (ip), vehicle: carboxymethylcellulose (CMC)
[5] = dose: 200.0 mg/kg/injection, schedule: Q01DX001 (ip), vehicle: carboxymethylcellulose (CMC)
[6] = dose: 400.0 mg/kg/injection, schedule: Q01DX001 (ip), vehicle: carboxymethylcellulose (CMC)
[7] = dose: 100.0 mg/kg/injection, schedule: Q04DX003 (ip), vehicle: Klucel (hydroxypropylcellulose) (HPC)
[8] = dose: 200.0 mg/kg/injection, schedule: Q04DX003 (ip), vehicle: Klucel (hydroxypropylcellulose) (HPC)
[9] = dose: 400.0 mg/kg/injection, schedule: Q04DX003 (ip), vehicle: Klucel (hydroxypropylcellulose) (HPC)
[10] = dose: 100.0 mg/kg/injection, schedule: Q01DX009 (ip), vehicle: Klucel (hydroxypropylcellulose) (HPC)
[11] = dose: 200.0 mg/kg/injection, schedule: Q01DX009 (ip), vehicle: Klucel (hydroxypropylcellulose) (HPC)
[12] = dose: 400.0 mg/kg/injection, schedule: Q01DX009 (ip), vehicle: Klucel (hydroxypropylcellulose) (HPC)
[13] = dose: 100.0 mg/kg/injection, schedule: Q04DX003 (ip), vehicle: saline with Tween-80
[14] = dose: 200.0 mg/kg/injection, schedule: Q04DX003 (ip), vehicle: saline with Tween-80
[15] = dose: 400.0 mg/kg/injection, schedule: Q04DX003 (ip), vehicle: saline with Tween-80
[16] = dose: 100.0 mg/kg/injection, schedule: Q04DX003 (ip), vehicle: saline
[17] = dose: 200.0 mg/kg/injection, schedule: Q04DX003 (ip), vehicle: saline
[18] = dose: 400.0 mg/kg/injection, schedule: Q04DX003 (ip), vehicle: saline

Measured: T/C

O=C(O)c1cccc(-n2cnc3c(=O)[nH]cnc32)c1
inactive: dose: 50.0 mg/kg/injection, schedule: Q01DX001 (ip), vehicle: saline 108 % of control | [1] 93 % of control | [2] 96 % of control | [3] 104 % of control

O=Cc1ccc2c3c(cccc13)CC2
inactive: [1] 96 % of control | [2] 101 % of control | [3] 100 % of control

CCOC(=O)C1CSC(C)(C(=O)OCC)N1 (configuration not stated)
inactive: [4] 100 % of control | [5] 96 % of control | [6] 105 % of control

Cc1cc(C)c2c(c1)-c1nc3c(cc1CC2)CCc1c(C)cc(C)cc1-3
inactive: [7] 100 % of control | [8] 95 % of control | [9] 97 % of control

COc1ccc(CNS(=O)(=O)c2ccc(C)cc2)cc1OC
inactive: [4] 96 % of control | [5] 110 % of control | [6] 116 % of control

Cc1cc(C)c(S(=O)(=O)Nc2cc([N+](=O)[O-])ccc2C)c(C)c1
inactive: [10] 97 % of control | [11] 92 % of control | [12] 92 % of control

Cc1cc(N(CCCCl)CCCCl)ccc1C=Nc1cccc(Cl)c1
inactive: [7] 101 % of control | [8] 101 % of control | [9] 96 % of control

O=Cc1cc(O)ccc1[N+](=O)[O-]
inactive: dose: 100.0 mg/kg/injection, schedule: Q01DX009 (ip), vehicle: saline with Tween-80 98 % of control | [13] 103 % of control | dose: 200.0 mg/kg/injection, schedule: Q01DX009 (ip), vehicle: saline with Tween-80 88 % of control | [14] 104 % of control | [15] 109 % of control

CCOc1ccccc1NC(=O)NCC(=O)N/N=C/c1ccc(O)c(OC)c1
inactive: [10] 95 % of control | [11] 90 % of control | [12] 91 % of control

Clc1cc(Cl)c2c(c1)Cc1cc(Cl)cc(Cl)c1-2
inactive: [10] 94 % of control | [7] 92 % of control | [11] 91 % of control | [8] 89 % of control | [12] 87 % of control | [9] 102 % of control

CC(Br)(C(=O)O)C(Br)c1ccccc1 (configuration not stated)
inactive: [13] 90 % of control | [14] 95 % of control | [15] 88 % of control

CC(=O)CCCOc1ccc([N+](=O)[O-])cc1
inactive: [1] 98 % of control | [2] 98 % of control | [3] 101 % of control

CC(C)c1oc2ccccc2c1C(=O)c1ccncc1
inactive: dose: 75.0 mg/kg/injection, schedule: Q04DX003 (ip), vehicle: saline with Tween-80 97 % of control | dose: 150.0 mg/kg/injection, schedule: Q04DX003 (ip), vehicle: saline with Tween-80 101 % of control | dose: 300.0 mg/kg/injection, schedule: Q04DX003 (ip), vehicle: saline with Tween-80 101 % of control

CC(=O)Nc1onc(C)c1N
inactive: dose: 50.0 mg/kg/injection, schedule: Q01DX009 (ip), vehicle: saline 103 % of control | dose: 100.0 mg/kg/injection, schedule: Q01DX009 (ip), vehicle: saline 98 % of control | [16] 94 % of control | dose: 200.0 mg/kg/injection, schedule: Q01DX009 (ip), vehicle: saline 116 % of control and 88 % of control | [17] 94 % of control | [18] 92 % of control

CCN(CC)CCOC(=O)Cc1ccccc1
inactive: [10] 94 % of control | [7] 97 % of control | [11] 104 % of control | [8] 100 % of control | [12] 105 % of control | [9] 100 % of control

CC1=C/C(=N\N2CCOCC2)C(C(O)(C(F)(F)F)C(F)(F)F)C(C)(C)C1 (configuration not stated)
inactive: [16] 98 % of control | [17] 98 % of control | [18] 96 % of control

O=c1oc2c(Cl)cc(Cl)cc2cc1-c1nc2ccccc2[nH]1
inactive: dose: 100.0 mg/kg/injection, schedule: Q04DX002 (ip), vehicle: saline with Tween-80 100 % of control | dose: 200.0 mg/kg/injection, schedule: Q04DX002 (ip), vehicle: saline with Tween-80 93 % of control | dose: 400.0 mg/kg/injection, schedule: Q04DX002 (ip), vehicle: saline with Tween-80 96 % of control

COc1ccc2nc3ccccc3c(NCCCN(C)C)c2c1
inactive: dose: 5.0 mg/kg/injection, schedule: Q01DX001 (ip), vehicle: saline 115 % of control | dose: 10.0 mg/kg/injection, schedule: Q01DX001 (ip), vehicle: saline 115 % of control | dose: 20.0 mg/kg/injection, schedule: Q01DX001 (ip), vehicle: saline 107 % of control | dose: 40.0 mg/kg/injection, schedule: Q01DX001 (ip), vehicle: saline 106 % of control
